Columns and labels:
Format in all cases: in vivo, chicken
[1] = system: Fertilized Cobb 500 broiler eggs; assay: Pectoralis major muscle fiber morphometrics and satellite cell content (second Example VI)
Experimental: The methods of Gonzalez and Jackson (2020) were followed for immunohistochemistry analysis. On 2 separate slides, 6 cryosections (10 μm thick) were collected on positively charged slides (Diamond White Glass; Globe Scientific Inc., Paramus, N.J.). Cryosections were incubated in 5% horse serum and 0.2% TritonX-100 in phosphate buffered saline (PBS) for 30 min to block all nonspecific binding sites. Cryosections were incubated for 16 h at 4° C. with a primary antibody solution comprising blocking solution and 1:500 rabbit α-dystrophin (Thermo Scientific, Waltham, Mass.) and 1:2 […] α-Pax7 antibody (Developmental Studies Hybridoma Bank, Iowa City, Iowa). Cryosections were washed 3 times for 5 min with PBS and incubated for 30 min with 1:1,000 Alexa-Flour 594 goat-anti-rabbit H&L (Life Technologies, Carlsbad, Calif.), 1:1000 Alexa-Flour 488 chicken-anti-mouse IgG1 (Life Technologies), and 1:1,000 Hoescht Dye 33342 (Life technologies) secondary antibodies in blocking solution. After washing in PBS 3 times for 5 min, 5 μL of 9:1 glycerol in PBS was placed on each cryosection and slides were coverslipped for imaging. All cryosections were imaged at 200× magnification using a Nikon Eclipse TI-U inverted microscope (Nikon Instruments Inc., Melville, N.Y.). Immunohistochemistry photomicrographs were collected with a DS-QiMC digital camera (Nikon Instruments Inc.) and SDH cryosections were collected with a Nikon DS-Fil color digital camera (Nikon Instruments Inc.) White light intensity was kept constant for SDH photomicrographs. All photomicrograph collection and image analyses were conducted using NIS Elements Basic Software (Nikon Instruments Inc.). Cross-sectional area (CSA) of a minimum of 1,000 muscle fibers per chick was determined as the area within the dystrophin border. The number of satellite cell was determined as nuclei co-staining for Pax 7 and Hoechst dye located at the periphery of muscle fiber. A minimum of 50 muscle fiber bundles per chick were analyzed for SDH mean intensity using the same software. The scale for mean intensity ranged from 0 (black or the most intense staining) to 250 (white or the least intense staining).

[2] = system: Fertilized Cobb 500 broiler eggs; assay: Pectoralis major NAD+ quantification, NAD/NADH assay kit (second Example VI); conditions: hatched chicks
Experimental: Nicotinamide adenine dinucleotide content of the right PMM was quantified using a commercial NAD/NADH assay kit (Abnova, Taipei, Taiwan). Twenty-milligram of PMM tissue was homogenized in a propriety NAD extraction buffer, heated at 60° C. for 5 min, and propriety assay and NADH buffers were added. Samples were centrifuged at 14,000 rpm for 5 min and the supernatant was used for analysis. Standards, samples, and working reagent [propriety assay buffer, enzymes, lactate, and 3-(4,5-dimethylthiazol-2-yl)-2,5-diphenyltetrazolium bromide] were loaded onto 96-well plates and absorbance was read at 565 nm at 0 and 15 min. The change in absorbance was used to calculate amount of NAD+.

[3] = system: Fertilized Cobb 500 broiler eggs; assay: Cyclin D mRNA expression by real-time PCR (second Example VI); conditions: 250, 500 mM or 1 M NR; hatched chicks
Experimental: The methods of Burnett et al. (2016) were followed with minor modifications. Briefly, nucleic acids were extracted and purified from 200 mg of the left biceps femoris muscle using Trizol (Life Technologies), followed by subjecting the nucleic acids to PureLink™ RNA
Mini Kit (Life Technologies, Carlsbad, Calif.). Total RNA concentration and 260 nm/280 nm ratio were quantified and extractions yielding RNA with a ratio greater than 1.9 were used for real-time PCR analysis. Trace genomic DNA contamination and reverse transcription were conducted on 50 ng of total RNA using a High-Capacity cDNA Reverse Transcription Kit (Life Technologies). Gene specific primers were designed, efficiencies determined, and validated for qPCR (Table 7). Complementary DNA was amplified in duplicate for each sample using PerfeCTa SYBR Green FastMix (Quanta Biosciences, Gaithersburg, Md.) and the appropriate gene specific forward and reverse primers (20 pM) in an Eppendorff Mastercycler realplex2 S PCR System (Eppendorf North America, Hauppauge, N.Y.). Thermal cycling parameters were initial heating at 50° C. for 2 min, denaturing at 95° C. for 10 min, 50 cycles of 15 s at 95.0° C., annealing at 60.5° C. for 30 s, and extension for 20 s at 68.0° C. A final dissociation step was included at 95° C. for 15 s, 60° C. for 30 s, and 95° C. for 15 s. Expression was normalized to 18S ribosomal RNA expression (ΔCt, where Ct refers to the threshold cycle), and calibrated to control chick (0 mM) mRNA expression (ΔΔCt). Gene fold change expression levels were calculated as 2^−ΔΔCt as previously described by Livak and Schmittgen (2001).

[4] = 250, 500 mM or 1 M NR, hatched chicks
[5] = 250 and 500 mM NR, hatched chicks

NC(=O)c1ccc[n+]([C@@H]2O[C@H](CO)[C@@H](O)[C@H]2O)c1 [Nicotinamide riboside, nicotinamide riboside]
Increase of satellite cell density compared to control ([1]; 250 mM NR, at hatching): 73% | Satellite cell density vs control chicks ([1]; 250 mM NR, hatched chicks): greater | Average increase of satellite cell density compared to control ([1]; 500 mM and 1 M NR, at hatching): 116% | Satellite cell density vs 0 and 250 mM treatments ([1]; 500 mM or 1 M NR, hatched chicks): greater satellite cell density | Increase of muscle fiber density compared to control chicks ([1]; 1 M NR, hatched chicks): 75% | Muscle fiber density vs all other treatments ([1]; 1 M NR, hatched chicks): greater muscle fiber density | Muscle fiber CSA [1, 4]: no treatment effect | Number of satellite cells per muscle fiber [1, 4]: no treatment effect | Increase of muscle fiber density compared to control chicks (average) [1, 5]: 34% | Muscle fiber density vs control chicks [1, 5]: greater muscle fiber density | NAD+ content of PMM vs the other 3 treatment groups ([2]; 1,000 mM NR): more NAD^+ | NAD+ content of PMM among 0, 250 and 500 mM groups ([2]; 250 and 500 mM NR): did not differ | Cyclin D1 and 2 mRNA expression [3]: no treatment effects | Cyclin D3 mRNA expression, control vs all NR treatments [3]: Control chicks had greater cyclin D3 expression | Greater cyclin D3 mRNA expression of control chicks than NR chicks (average) [3]: 38%

From patent US11571413B2, “Nicotinamide riboside treatments of domesticated meat animals” (Kansas State University Research Foundation, priority 2017, dated 2023)
